Test [1] deals with T1, panel of 442 kinases (Homo sapiens, UniProt P29376).
T1 construct: purchased KINOMEscan
Format: binding. Particulars: Compound Concentration 10 µM. An excerpt: (§1) We assessed the selectivity of members of this scaffold using the KINOMEscan methodology across a near comprehensive panel of 442 kinases [[18,27]].

Test [2] deals with T2, panel of 442 kinases (Homo sapiens, UniProt Q9BRS2).
T2 construct: purchased KINOMEscan
T2 sequence (Q9BRS2 1-568): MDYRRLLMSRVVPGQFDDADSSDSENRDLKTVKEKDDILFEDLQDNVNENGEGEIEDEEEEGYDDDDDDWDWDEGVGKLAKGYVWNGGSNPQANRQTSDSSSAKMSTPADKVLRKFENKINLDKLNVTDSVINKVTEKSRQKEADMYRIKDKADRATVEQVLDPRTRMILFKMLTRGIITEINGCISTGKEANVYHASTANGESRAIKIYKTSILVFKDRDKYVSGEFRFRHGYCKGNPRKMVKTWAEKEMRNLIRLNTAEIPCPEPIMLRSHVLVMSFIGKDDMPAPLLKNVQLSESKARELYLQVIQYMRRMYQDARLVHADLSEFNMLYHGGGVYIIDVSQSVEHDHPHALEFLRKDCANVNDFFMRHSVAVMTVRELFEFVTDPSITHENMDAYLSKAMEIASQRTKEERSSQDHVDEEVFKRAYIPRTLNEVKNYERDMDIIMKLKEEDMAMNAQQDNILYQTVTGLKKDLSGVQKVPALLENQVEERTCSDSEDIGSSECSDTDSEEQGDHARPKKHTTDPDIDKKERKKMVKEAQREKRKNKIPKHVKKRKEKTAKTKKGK
Format: binding. Particulars: Compound Concentration 10 µM.
From the text: as §1

The structures appear in SMILES notation.

T1 sequence (P29376 17-864): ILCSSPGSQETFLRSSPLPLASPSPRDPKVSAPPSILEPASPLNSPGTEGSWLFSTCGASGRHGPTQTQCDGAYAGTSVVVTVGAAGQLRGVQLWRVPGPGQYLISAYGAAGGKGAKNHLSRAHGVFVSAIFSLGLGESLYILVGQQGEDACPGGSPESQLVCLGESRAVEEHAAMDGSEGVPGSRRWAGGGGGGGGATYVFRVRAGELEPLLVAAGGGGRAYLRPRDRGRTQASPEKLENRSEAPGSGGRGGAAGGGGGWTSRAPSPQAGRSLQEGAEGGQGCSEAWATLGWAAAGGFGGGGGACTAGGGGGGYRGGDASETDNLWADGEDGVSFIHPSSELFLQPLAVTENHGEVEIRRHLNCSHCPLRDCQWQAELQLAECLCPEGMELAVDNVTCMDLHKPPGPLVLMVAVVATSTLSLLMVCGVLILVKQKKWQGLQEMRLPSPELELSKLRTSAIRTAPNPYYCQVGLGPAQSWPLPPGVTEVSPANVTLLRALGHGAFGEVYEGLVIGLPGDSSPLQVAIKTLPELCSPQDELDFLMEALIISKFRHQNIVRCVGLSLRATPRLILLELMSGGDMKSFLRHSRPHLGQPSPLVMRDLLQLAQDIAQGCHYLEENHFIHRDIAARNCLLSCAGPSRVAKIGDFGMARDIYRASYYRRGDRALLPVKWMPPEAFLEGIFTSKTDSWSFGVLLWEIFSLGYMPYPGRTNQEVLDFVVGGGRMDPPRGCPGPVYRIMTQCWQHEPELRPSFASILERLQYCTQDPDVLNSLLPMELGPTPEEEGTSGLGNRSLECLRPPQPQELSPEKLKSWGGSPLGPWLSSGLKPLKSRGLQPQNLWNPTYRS

Turning to `COc1cc(C(=O)N2CCC(N3CCN(C)CC3)CC2)ccc1Nc1ncc2c(n1)N(C1CCCC1)c1ccccc1C(=O)N2C` [Compound 25, 11-cyclopentyl-2-((2-methoxy-4-(4-(4-methylpiperazin-1-yl)piperidine-1-carbonyl)phenyl)amino)-5-methyl-5H-benzo[e]pyrimido[5,4-b][1,4]diazepin-6(11H)-one], the “KINOMEscan: LTK” value in test [1] stood at 11. In test [2], the “KINOMEscan: RIOK1” value came to 76.

`COc1cc(C(=O)N2CCC(N3CCN(C)CC3)CC2)ccc1Nc1ncc2c(n1)N(C)c1ccccc1C(=O)N2C` [15 (LRRK2-IN-1)]: the “KINOMEscan: LTK” value in test [1] turned out to be 32. Besides, the “KINOMEscan: RIOK1” value in test [2] is reported as 100.

With `CCOc1cc(C(=O)N2CCC(N3CCN(C)CC3)CC2)ccc1Nc1ncc2c(n1)N(C1CCCC1)c1ccccc1C(=O)N2C` [Compound 26], the “KINOMEscan: LTK” value in test [1] was found to be 48. Moreover, the “KINOMEscan: RIOK1” value in test [2] turned out to be 100.

Source of the values: PMC3914206.
